Read-outs that look alike come from different tables or passages of the source.

Holding throughout (assay): biochemical
Type in all cases: biochemical

In test [1] the target is T1, 363 human kinases (including Aurora A/B/C) (Homo sapiens, UniProt Q14164).
T1 sequence (Q14164 1-716): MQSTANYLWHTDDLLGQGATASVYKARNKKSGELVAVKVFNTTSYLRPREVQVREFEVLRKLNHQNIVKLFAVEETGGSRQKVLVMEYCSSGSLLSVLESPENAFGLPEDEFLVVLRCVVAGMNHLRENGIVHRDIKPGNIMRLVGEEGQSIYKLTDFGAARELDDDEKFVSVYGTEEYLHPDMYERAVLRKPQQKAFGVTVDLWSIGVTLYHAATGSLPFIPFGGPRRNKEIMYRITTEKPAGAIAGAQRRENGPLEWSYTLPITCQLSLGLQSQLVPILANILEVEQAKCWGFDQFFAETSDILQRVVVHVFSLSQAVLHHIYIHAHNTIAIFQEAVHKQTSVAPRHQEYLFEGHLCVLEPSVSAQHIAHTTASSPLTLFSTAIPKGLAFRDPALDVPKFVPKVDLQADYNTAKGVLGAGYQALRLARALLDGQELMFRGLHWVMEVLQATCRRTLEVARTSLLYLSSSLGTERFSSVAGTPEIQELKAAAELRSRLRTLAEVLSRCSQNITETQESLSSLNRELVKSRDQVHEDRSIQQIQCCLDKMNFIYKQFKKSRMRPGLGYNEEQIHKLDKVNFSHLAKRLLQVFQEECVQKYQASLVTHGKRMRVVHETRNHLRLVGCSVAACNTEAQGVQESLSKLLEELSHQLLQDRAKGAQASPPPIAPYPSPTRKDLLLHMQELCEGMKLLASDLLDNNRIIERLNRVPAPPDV
As to conditions: for remaining activity at 0.1 µM: 100 nM.
From the text: (§1) However, the Aurora A/B selectivity ratios derived from our in vitro and in vivo data can be compared to prioritize inhibitors.

The target of test [2] is T2, 363 human kinases (including Aurora A/B/C) (Homo sapiens, UniProt Q8TF76).
T2 sequence (Q8TF76 1-798): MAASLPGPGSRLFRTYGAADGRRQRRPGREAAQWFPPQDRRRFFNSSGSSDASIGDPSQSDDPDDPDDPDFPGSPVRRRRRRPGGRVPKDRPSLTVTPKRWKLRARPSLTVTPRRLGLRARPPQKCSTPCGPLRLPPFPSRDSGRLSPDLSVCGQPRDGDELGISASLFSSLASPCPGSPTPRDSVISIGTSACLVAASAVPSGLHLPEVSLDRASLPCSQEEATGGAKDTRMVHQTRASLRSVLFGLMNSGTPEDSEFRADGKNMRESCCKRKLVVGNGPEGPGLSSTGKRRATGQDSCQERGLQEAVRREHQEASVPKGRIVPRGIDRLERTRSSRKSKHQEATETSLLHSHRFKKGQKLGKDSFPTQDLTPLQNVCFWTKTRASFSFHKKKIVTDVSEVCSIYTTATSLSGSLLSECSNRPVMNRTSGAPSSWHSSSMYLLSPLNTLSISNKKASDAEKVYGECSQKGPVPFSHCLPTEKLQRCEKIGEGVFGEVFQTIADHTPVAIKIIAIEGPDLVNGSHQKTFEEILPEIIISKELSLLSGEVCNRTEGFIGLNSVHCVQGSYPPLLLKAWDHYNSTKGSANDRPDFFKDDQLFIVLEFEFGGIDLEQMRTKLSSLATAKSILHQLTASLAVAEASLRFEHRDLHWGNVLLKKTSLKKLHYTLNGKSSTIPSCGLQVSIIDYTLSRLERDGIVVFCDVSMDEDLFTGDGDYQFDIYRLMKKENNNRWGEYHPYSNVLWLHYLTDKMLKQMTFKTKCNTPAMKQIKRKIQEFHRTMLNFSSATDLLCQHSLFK
As to conditions: Haspin; for remaining activity at 0.1 µM: 100 nM; for remaining activity at 0.1 µM / remaining activity at 0.5 µM: read-out: % Enzyme Activity (relative to DMSO controls).
From the text: as §1

The target in test [3] is T3, 363 human kinases (including Aurora A/B/C) (Homo sapiens, UniProt Q9UKI8).
T3 sequence (Q9UKI8 1-766): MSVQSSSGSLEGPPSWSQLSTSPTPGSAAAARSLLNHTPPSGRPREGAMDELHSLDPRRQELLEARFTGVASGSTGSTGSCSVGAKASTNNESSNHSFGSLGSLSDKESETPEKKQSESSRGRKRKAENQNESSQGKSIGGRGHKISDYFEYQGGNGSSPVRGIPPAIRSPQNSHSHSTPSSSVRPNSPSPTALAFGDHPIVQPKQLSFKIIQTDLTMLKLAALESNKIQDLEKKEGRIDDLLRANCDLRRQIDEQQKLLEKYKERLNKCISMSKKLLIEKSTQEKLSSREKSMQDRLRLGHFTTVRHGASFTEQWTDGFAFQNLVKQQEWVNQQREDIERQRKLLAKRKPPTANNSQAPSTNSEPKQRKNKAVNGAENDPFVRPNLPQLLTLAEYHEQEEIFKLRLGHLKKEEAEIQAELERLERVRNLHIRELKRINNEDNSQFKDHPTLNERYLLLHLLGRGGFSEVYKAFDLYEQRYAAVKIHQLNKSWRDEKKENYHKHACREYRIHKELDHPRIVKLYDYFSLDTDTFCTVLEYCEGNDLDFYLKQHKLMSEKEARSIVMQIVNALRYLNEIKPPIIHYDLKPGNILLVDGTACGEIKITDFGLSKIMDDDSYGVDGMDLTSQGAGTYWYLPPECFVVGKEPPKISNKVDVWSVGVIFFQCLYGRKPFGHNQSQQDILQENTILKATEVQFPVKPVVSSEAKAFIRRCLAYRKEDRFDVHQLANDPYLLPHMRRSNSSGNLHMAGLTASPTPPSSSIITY
As to conditions: TLK1; for remaining activity at 0.1 µM: 100 nM; for remaining activity at 0.1 µM / remaining activity at 0.5 µM: read-out: % Enzyme Activity (relative to DMSO controls).
From the text: as §1

For test [4], the target named is 363 human kinases (including Aurora A/B/C) (Homo sapiens, UniProt Q14680). As to conditions: MELK; for remaining activity at 0.1 µM: 100 nM; for remaining activity at 0.1 µM / remaining activity at 0.5 µM: read-out: % Enzyme Activity (relative to DMSO controls).
From the text: as §1
The target in test [5] is 363 human kinases (including Aurora A/B/C) (Homo sapiens, UniProt P00533). As to conditions: EGFR, [ATP] 1 µM; for remaining activity at 0.1 µM: 100 nM; for remaining activity at 0.1 µM / remaining activity at 0.5 µM: read-out: % Enzyme Activity (relative to DMSO controls).
From the text: as §1
Test [6] addresses 363 human kinases (including Aurora A/B/C) (Homo sapiens, UniProt P11802). As to conditions: for remaining activity at 0.1 µM: 100 nM; for remaining activity at 0.1 µM / remaining activity at 0.5 µM: read-out: % Enzyme Activity (relative to DMSO controls); for remaining activity at 0.5 µM / % Enzyme Activity (relative to DMSO controls): 500 nM.
From the text: as §1
Test [7] has as its target 363 human kinases (including Aurora A/B/C) (Homo sapiens, UniProt Q9NYL2). As to conditions: ZAK/MLTK; for remaining activity at 0.1 µM: 100 nM; for remaining activity at 0.1 µM / remaining activity at 0.5 µM: read-out: % Enzyme Activity (relative to DMSO controls).
From the text: as §1
In test [8] the target is 363 human kinases (including Aurora A/B/C) (Homo sapiens, UniProt P43405). As to conditions: SYK; for remaining activity at 0.1 µM: 100 nM; for remaining activity at 0.1 µM / remaining activity at 0.5 µM: read-out: % Enzyme Activity (relative to DMSO controls).
From the text: as §1
In test [9] the target is 363 human kinases (including Aurora A/B/C) (Homo sapiens, UniProt Q8IU85). As to conditions: CAMK1d, [ATP] 2.5 µM; for remaining activity at 0.1 µM: 100 nM; for remaining activity at 0.1 µM / remaining activity at 0.5 µM: read-out: % Enzyme Activity (relative to DMSO controls).
From the text: as §1
Where [10] appears, read: IKKe/IKBKE, 500 nM, read-out: % Enzyme Activity (relative to DMSO controls).

Sequence of 363 human kinases (including Aurora A/B/C) (Homo sapiens, UniProt Q14680) (Q14680 whole entry): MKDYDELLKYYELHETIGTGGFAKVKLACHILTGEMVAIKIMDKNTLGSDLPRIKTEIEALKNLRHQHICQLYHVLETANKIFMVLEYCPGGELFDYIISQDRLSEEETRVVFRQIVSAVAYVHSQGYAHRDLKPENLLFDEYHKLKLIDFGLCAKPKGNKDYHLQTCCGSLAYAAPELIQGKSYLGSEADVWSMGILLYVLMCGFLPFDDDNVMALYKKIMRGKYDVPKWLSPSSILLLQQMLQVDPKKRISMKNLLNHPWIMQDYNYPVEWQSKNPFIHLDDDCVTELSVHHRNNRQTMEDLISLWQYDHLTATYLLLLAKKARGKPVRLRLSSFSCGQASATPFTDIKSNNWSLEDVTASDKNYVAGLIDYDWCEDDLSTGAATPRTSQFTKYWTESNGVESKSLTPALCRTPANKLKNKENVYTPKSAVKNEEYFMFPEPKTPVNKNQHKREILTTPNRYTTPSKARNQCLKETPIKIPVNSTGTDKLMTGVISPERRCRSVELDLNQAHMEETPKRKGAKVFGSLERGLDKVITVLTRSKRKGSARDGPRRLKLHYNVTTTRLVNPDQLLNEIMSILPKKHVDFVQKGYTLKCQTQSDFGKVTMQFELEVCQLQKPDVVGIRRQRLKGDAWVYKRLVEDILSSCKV
Sequence of 363 human kinases (including Aurora A/B/C) (Homo sapiens, UniProt P00533) (P00533 25-1210): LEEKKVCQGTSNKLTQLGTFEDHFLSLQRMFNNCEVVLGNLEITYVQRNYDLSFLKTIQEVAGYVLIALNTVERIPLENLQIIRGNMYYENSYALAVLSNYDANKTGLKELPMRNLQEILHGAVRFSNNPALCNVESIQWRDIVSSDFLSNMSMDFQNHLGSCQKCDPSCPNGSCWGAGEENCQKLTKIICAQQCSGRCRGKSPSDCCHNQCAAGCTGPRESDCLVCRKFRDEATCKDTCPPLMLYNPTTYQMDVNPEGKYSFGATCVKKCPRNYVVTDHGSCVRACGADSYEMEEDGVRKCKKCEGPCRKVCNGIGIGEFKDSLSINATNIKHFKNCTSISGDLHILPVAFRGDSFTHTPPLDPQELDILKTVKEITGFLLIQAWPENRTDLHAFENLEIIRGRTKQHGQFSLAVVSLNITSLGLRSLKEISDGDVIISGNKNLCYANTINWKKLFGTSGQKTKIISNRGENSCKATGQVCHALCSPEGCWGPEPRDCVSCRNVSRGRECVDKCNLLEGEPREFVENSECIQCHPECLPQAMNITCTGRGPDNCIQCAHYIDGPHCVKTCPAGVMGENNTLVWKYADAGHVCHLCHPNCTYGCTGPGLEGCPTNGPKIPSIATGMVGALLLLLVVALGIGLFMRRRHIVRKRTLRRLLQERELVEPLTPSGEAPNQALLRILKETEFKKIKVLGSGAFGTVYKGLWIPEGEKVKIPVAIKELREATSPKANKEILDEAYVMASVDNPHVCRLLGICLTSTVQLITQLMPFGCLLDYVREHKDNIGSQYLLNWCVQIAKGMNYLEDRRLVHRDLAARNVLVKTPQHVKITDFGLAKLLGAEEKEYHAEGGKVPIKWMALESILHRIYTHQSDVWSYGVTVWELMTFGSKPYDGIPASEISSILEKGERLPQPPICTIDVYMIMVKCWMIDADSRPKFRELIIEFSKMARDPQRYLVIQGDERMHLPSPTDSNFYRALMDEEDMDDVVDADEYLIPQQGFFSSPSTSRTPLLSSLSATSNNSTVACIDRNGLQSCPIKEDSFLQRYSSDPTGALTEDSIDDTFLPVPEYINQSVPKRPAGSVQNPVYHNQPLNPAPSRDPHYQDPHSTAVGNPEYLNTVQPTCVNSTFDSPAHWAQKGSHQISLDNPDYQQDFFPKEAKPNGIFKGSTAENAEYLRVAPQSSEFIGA
Sequence of 363 human kinases (including Aurora A/B/C) (Homo sapiens, UniProt Q9NYL2) (Q9NYL2 whole entry): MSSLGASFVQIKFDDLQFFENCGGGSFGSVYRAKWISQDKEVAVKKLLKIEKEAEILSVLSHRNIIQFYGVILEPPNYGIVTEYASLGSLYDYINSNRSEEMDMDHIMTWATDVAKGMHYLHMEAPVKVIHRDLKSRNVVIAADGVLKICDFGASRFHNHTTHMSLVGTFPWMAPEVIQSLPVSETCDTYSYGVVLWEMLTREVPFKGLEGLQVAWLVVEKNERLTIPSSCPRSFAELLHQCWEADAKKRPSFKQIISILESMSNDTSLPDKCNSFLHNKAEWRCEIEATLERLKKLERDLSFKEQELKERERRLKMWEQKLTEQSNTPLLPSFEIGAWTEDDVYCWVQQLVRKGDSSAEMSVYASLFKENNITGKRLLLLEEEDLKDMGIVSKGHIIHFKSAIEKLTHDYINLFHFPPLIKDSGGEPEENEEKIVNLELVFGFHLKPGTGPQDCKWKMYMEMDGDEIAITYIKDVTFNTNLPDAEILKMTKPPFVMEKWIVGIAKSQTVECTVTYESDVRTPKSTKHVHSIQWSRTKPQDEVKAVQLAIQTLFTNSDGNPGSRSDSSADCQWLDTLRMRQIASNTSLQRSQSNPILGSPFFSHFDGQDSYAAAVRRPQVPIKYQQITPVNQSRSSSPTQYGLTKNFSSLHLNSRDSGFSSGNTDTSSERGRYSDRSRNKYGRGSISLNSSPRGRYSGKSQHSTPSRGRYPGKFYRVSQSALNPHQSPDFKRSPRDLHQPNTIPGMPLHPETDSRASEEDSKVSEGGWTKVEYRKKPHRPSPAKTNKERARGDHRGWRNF
Sequence of 363 human kinases (including Aurora A/B/C) (Homo sapiens, UniProt P11802) (P11802 whole entry): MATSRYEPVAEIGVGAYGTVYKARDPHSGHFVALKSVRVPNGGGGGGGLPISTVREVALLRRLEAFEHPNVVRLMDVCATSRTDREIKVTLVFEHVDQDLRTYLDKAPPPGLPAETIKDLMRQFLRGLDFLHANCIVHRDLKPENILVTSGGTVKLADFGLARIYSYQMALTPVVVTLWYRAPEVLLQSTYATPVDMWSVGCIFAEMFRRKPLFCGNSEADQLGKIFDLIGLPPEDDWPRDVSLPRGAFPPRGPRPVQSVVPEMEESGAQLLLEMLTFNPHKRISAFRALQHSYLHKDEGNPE
Sequence of 363 human kinases (including Aurora A/B/C) (Homo sapiens, UniProt Q8IU85) (Q8IU85 whole entry): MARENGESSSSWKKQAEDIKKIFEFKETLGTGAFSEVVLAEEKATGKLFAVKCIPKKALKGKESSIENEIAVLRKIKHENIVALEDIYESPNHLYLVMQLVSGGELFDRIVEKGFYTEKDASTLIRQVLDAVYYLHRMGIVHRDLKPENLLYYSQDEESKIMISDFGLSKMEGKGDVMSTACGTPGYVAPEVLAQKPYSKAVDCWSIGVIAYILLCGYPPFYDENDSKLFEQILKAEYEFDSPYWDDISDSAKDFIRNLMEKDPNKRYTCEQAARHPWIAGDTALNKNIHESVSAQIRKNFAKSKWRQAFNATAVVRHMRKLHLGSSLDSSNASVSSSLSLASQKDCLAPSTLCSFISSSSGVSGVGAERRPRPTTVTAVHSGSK

`CCn1cc(-c2ccnc3[nH]c(-c4cccc(CN(C)C)c4)cc23)c(-c2ccc(NC(=O)N(C)C)cc2)n1` [GSK1070916]: the remaining activity at 0.1 µM in [1] (read-out: % Enzyme Activity (relative to DMSO controls), IKKe/IKBKE) was 84.4%; in test [2], 86.9%; in test [3] it was 120%; in [4] it was 95.7%; in [5] it was 54.6%; in [6] (CDK4/cyclin D1, [ATP] 30 µM), 97.5%. The remaining activity at 0.1 µM in [6] (CDK4/cyclin D3, [ATP] 15 µM) turned out to be 95.6%; in test [7] it was 101%; in test [8], 84.8%; in [9], 111%.
Take `O=C(O)[C@]1(Cc2cccc(Nc3nccs3)n2)CC[C@@H](Oc2cccc(Cl)c2F)CC1` [MK-5108]: the remaining activity at 0.1 µM in [1] (IKKe/IKBKE, read-out: % Enzyme Activity (relative to DMSO controls)) worked out at 98.3%; in test [2] it was 101%; in test [3], 95.7%; in [4], 109%; in test [5], 67.3%; in test [6] (CDK4/cyclin D1, [ATP] 30 µM), 96.4%. Also, the remaining activity at 0.1 µM turned out to be 99% in test [6] (CDK4/cyclin D3, [ATP] 15 µM); 126% in [7]; 93.8% in [8]; 94.4% in test [9]. Also, the remaining activity at 0.5 µM in test [1] (setting [10]) was found to be 80.6%; in [2] (500 nM), 74%; in [3] (500 nM), 116%; in [4] (500 nM), 112%; in test [5] (500 nM), 33.9%; in test [6] (CDK4/cyclin D1, [ATP] 30 µM), 96.1%. The remaining activity at 0.5 µM in test [6] (CDK4/cyclin D3, [ATP] 15 µM) was 98.8%; in test [7] (500 nM) it was 97.9%; in test [8] (500 nM), 63.6%; in test [9] (500 nM) it was 114%.
In the case of `O=C(c1cccc(Cl)c1F)N1CCN(Cc2cccc(Nc3nccs3)n2)CC1` [MK-8745], the “% Enzyme Activity (relative to DMSO controls)” value was found to be 89.47% in test [1] (IKKe/IKBKE, 500 nM); 100.89% in test [2] (500 nM); 119.91% in test [3] (500 nM); 93.77% in test [4] (500 nM); 97.09% in test [5] (500 nM); 96.49% in [6] (CDK4/cyclin D1, [ATP] 30 µM). Also, the “% Enzyme Activity (relative to DMSO controls)” value is given as 93.01% in test [6] (CDK4/cyclin D3, [ATP] 15 µM); 91.42% in [7] (500 nM); 82.70% in test [8] (500 nM); 112.12% in test [9] (500 nM). Besides, the remaining activity at 0.5 µM in test [1] (setting [10]) was 92.2%; in [2] (500 nM) it was 102%; in [3] (500 nM) it was 125%; in [4] (500 nM), 95.9%; in [5] (500 nM), 99.1%; in test [6] (CDK4/cyclin D1, [ATP] 30 µM), 97.2%. The remaining activity at 0.5 µM in [6] (CDK4/cyclin D3, [ATP] 15 µM) was found to be 93.1%; in test [7] (500 nM) it was 91.9%; in test [8] (500 nM) it was 83.2%; in test [9] (500 nM) it was 114%.

Source of the values: article PMC4685510, “A Cell Biologist’s Field Guide to Aurora Kinase Inhibitors” (Frontiers in Oncology, 2015).
